Laboratory results reported in PMC7287880, “Structural Basis for Broad Substrate Selectivity of Alcohol Dehydrogenase YjgB from Escherichia coli” (Molecules, 2020).

Biological target: T1, EcYjgB (YjgB) (Escherichia coli, UniProt P27250)
T1 construct: gene ahr; full-length, C-terminal 6xHis tag (pET30a), recombinant in E. coli BL21(DE3), purified by Ni-NTA and size exclusion; Zn-containing dimer
T1 sequence (P27250 1-339): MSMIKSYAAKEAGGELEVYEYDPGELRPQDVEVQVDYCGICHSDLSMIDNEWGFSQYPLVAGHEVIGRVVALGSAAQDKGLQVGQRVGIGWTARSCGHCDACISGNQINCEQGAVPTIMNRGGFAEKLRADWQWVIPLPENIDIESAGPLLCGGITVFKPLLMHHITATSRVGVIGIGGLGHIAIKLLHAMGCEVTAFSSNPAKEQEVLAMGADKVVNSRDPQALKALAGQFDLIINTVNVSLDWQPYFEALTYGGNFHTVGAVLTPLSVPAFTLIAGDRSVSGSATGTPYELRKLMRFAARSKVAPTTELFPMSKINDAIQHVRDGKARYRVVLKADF
Assay: X-ray crystal structure of soaked crystal, […] A
Format: binding
Settings: apo crystals soaked with 5 mM NADP for 30 min at 7 C; Zn-bound; PEG fragment in substrate pocket; Rossmann-fold cofactor site

NC(=O)c1ccc[n+]([C@@H]2O[C@H](COP(=O)(O)OP(=O)(O)OC[C@H]3O[C@@H](n4cnc5c(N)ncnc54)[C@H](OP(=O)(O)O)[C@@H]3O)[C@@H](O)[C@H]2O)c1 [NADP]
X-ray crystal structure of soaked crystal, 2.00 A: The electron density of NADP is clearly shown in the NADP(H) binding site
